From BindingDB's records for doi:10.1021/jm7011563 (University of Siena, 2008)

Target: T1, Type-1 angiotensin II receptor A (Rattus norvegicus, UniProt P25095)
T1 sequence (P25095 whole entry): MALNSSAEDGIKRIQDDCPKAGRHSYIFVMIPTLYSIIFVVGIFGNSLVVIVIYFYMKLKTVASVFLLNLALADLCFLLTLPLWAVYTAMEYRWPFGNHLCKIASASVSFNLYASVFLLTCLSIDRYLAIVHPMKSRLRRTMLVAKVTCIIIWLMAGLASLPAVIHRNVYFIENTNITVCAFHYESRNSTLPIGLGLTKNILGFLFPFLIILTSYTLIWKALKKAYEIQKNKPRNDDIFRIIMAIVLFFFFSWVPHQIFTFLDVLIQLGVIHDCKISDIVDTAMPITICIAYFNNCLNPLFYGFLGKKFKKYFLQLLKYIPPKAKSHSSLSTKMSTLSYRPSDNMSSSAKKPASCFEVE
Assay: Displacement of [125I]Sar1,Ile8-Ang2 from AT1 receptor in Wistar rat hepatic membrane

Row | IC50 | SMILES
1 | > 10 µM | CCc1c2[nH]cccc-2c(=O)n1Cc1ccc(-c2ccccc2-c2nnn[nH]2)cc1
2 | > 10 µM | O=c1c2ccc[nH]c-2cn1Cc1ccc(-c2ccccc2-c2nnn[nH]2)cc1
